± gives the standard deviation of the averaged measurements.
Legend:
ETOPOSIDE = compound: COc1cc([C@@H]2c3cc4c(cc3[C@@H](O[C@@H]3O[C@@H]5CO[C@@H](C)O[C@H]5[C@H](O)[C@H]3O)[C@H]3COC(=O)[C@H]23)OCO4)cc(OC)c1O [ETOPOSIDE]; test: surviving fraction relative to DMSO-only wells; higher = less growth inhibition; conditions: exposure time: 5 days
In short: (§1)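 Inhibitors were tested at 0.5, 1, 5, 10, 50, 100, 500 and 1000 nM, applied continuously for five days beginning 24 hours after log-phase tumour cells were seeded at 250–500 per well in 384-well plates. CellTiter-Glo luminescence served as the viability measure, expressed as surviving fraction against the median of DMSO-only wells. Each line, screened three times, was kept only with replicate Pearson r >0.7 and median Z' >0.3.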

METHOTREXATE = compound: CN(Cc1cnc2nc(N)nc(N)c2n1)c1ccc(C(=O)N[C@@H](CCC(=O)O)C(=O)O)cc1 [METHOTREXATE]; test: as above; conditions: exposure time: 5 days
In short: as §1

Test System | surviving fraction (ETOPOSIDE; 0.5 nM) | surviving fraction (ETOPOSIDE; 1 nM) | surviving fraction (ETOPOSIDE; 5 nM) | surviving fraction (ETOPOSIDE; 10 nM) | surviving fraction (ETOPOSIDE; 50 nM) | surviving fraction (ETOPOSIDE; 100 nM) | surviving fraction (ETOPOSIDE; 500 nM) | surviving fraction (ETOPOSIDE; 1000 nM) | surviving fraction (METHOTREXATE; 0.5 nM) | surviving fraction (METHOTREXATE; 1 nM) | surviving fraction (METHOTREXATE; 5 nM) | surviving fraction (METHOTREXATE; 10 nM) | surviving fraction (METHOTREXATE; 50 nM) | surviving fraction (METHOTREXATE; 100 nM) | surviving fraction (METHOTREXATE; 500 nM) | surviving fraction (METHOTREXATE; 1000 nM)
SUM159 BREAST | 1.14 ± 0.18 | 1.08 ± 0.08 | 1.1 ± 0.11 | 1.07 ± 0.058 | 1.06 ± 0.055 | 0.977 ± 0.079 | 0.364 ± 0.086 | 0.187 ± 0.027 | 1.1 ± 0.027 | 1.09 ± 0.036 | 1.1 ± 0.049 | 1.09 ± 0.029 | 1.03 ± 0.038 | 0.951 ± 0.018 | 0.884 ± 0.013 | 0.897 ± 0.02
SUM44 BREAST | 1.03 ± 0.026 | 1.05 ± 0.034 | 1.05 ± 0.046 | 1.06 ± 0.027 | 1.09 ± 0.043 | 1.11 ± 0.062 | 0.928 ± 0.082 | 0.913 ± 0.036 | 1.31 ± 0.48 | 1.29 ± 0.48 | 1.23 ± 0.36 | 1.23 ± 0.39 | 1.33 ± 0.5 | 1.17 ± 0.38 | 0.819 ± 0.25 | 0.802 ± 0.29
MDAMB134 BREAST | 1.08 ± 0.13 | 1.187 ± 0.0057 | 0.994 ± 0.13 | 0.992 ± 0.099 | 1.03 ± 0.19 | 1.12 ± 0.17 | 1.11 ± 0.065 | 1.02 ± 0.055 | 0.929 ± 0.039 | 0.947 ± 0.04 | 0.899 ± 0.052 | 0.848 ± 0.027 | 1.12 ± 0.21 | 0.858 ± 0.073 | 0.75 ± 0.06 | 0.75 ± 0.011
MDAMB231 BREAST | 0.987 ± 0.022 | 1.03 ± 0.056 | 1.02 ± 0.018 | 0.995 ± 0.018 | 1.04 ± 0.029 | 1.03 ± 0.036 | 0.633 ± 0.017 | 0.454 ± 0.043 | 0.982 ± 0.023 | 0.967 ± 0.02 | 0.988 ± 0.026 | 0.986 ± 0.026 | 1.02 ± 0.02 | 1.01 ± 0.044 | 0.811 ± 0.017 | 0.509 ± 0.015
CME SYNOVIAL | 1.18 ± 0.13 | 1.09 ± 0.048 | 1.13 ± 0.081 | 1.13 ± 0.13 | 0.766 ± 0.015 | 0.364 ± 0.04 | 0.265 ± 0.0095 | 0.369 ± 0.023 | 1.2 ± 0.098 | 1.12 ± 0.069 | 0.755 ± 0.15 | 0.558 ± 0.062 | 0.612 ± 0.019 | 0.612 ± 0.034 | 0.561 ± 0.048 | 0.648 ± 0.046
HCC1954 BREAST | 0.889 ± 0.22 | 0.872 ± 0.095 | 1.1 ± 0.064 | 1.05 ± 0.074 | 0.953 ± 0.054 | 0.654 ± 0.014 | 0.512 ± 0.13 | 0.34 ± 0.0014 | 1.26 ± 0.04 | 1.16 ± 0.024 | 1.42 ± 0.14 | 1.3 ± 0.18 | 1.17 ± 0.11 | 0.997 ± 0.16 | 1.09 ± 0.13 | 0.849 ± 0.18
SG32 HEADNECK | 1.23 ± 0.076 | 1.3 ± 0.13 | 1.37 ± 0.11 | 1.2 ± 0.17 | 1.1 ± 0.098 | 1 ± 0.14 | 0.726 ± 0.042 | 0.608 ± 0.11 | 0.946 ± 0.11 | 1.5 ± 0.84 | 1.19 ± 0.16 | 1.25 ± 0.34 | 0.899 ± 0.039 | 1.02 ± 0.2 | 1.1 ± 0.14 | 0.954 ± 0.078
HCC70 BREAST | 1.05 ± 0.078 | 0.995 ± 0.053 | 1.08 ± 0.044 | 1.09 ± 0.1 | 0.991 ± 0.13 | 1.09 ± 0.09 | 0.785 ± 0.077 | 0.578 ± 0.016 | 1.04 ± 0.079 | 1.14 ± 0.092 | 1.01 ± 0.09 | 1.12 ± 0.046 | 0.842 ± 0.043 | 0.789 ± 0.023 | 0.763 ± 0.025 | 0.787 ± 0.041
MHM BONE | 0.994 ± 0.022 | 0.999 ± 0.011 | 1.01 ± 0.021 | 1.001 ± 0.007 | 1.02 ± 0.016 | 1.02 ± 0.045 | 0.894 ± 0.018 | 0.784 ± 0.024 | 1.02 ± 0.036 | 1.04 ± 0.044 | 1.05 ± 0.078 | 1.06 ± 0.038 | 0.784 ± 0.016 | 0.723 ± 0.04 | 0.689 ± 0.019 | 0.699 ± 0.01
NY BONE | 1.01 ± 0.033 | 1.01 ± 0.035 | 1.07 ± 0.032 | 1.09 ± 0.066 | 1.07 ± 0.05 | 1.06 ± 0.03 | 0.797 ± 0.033 | 0.592 ± 0.021 | 0.978 ± 0.015 | 0.993 ± 0.013 | 1.07 ± 0.068 | 0.97 ± 0.037 | 0.56 ± 0.023 | 0.566 ± 0.03 | 0.475 ± 0.026 | 0.42 ± 0.025
JIMT1 BREAST | 0.988 ± 0.02 | 1.01 ± 0.026 | 1.03 ± 0.032 | 1.03 ± 0.015 | 1.06 ± 0.022 | 1.07 ± 0.026 | 0.893 ± 0.028 | 0.694 ± 0.028 | 1.02 ± 0.053 | 0.999 ± 0.026 | 0.579 ± 0.035 | 0.533 ± 0.044 | 0.305 ± 0.028 | 0.286 ± 0.029 | 0.285 ± 0.042 | 0.295 ± 0.017
KPD BONE | 0.955 ± 0.016 | 0.894 ± 0.047 | 1.02 ± 0.026 | 1.02 ± 0.1 | 0.944 ± 0.023 | 0.811 ± 0.047 | 0.393 ± 0.0087 | 0.292 ± 0.014 | 1.06 ± 0.061 | 1.02 ± 0.043 | 1.12 ± 0.035 | 1.09 ± 0.076 | 1.08 ± 0.087 | 1.17 ± 0.021 | 1.02 ± 0.024 | 1.05 ± 0.047
HMLE3 BREAST | 1.02 ± 0.052 | 0.974 ± 0.06 | 1.01 ± 0.027 | 0.9737 ± 0.0075 | 0.826 ± 0.018 | 0.589 ± 0.06 | 0.279 ± 0.045 | 0.27 ± 0.017 | 0.98 ± 0.057 | 1.03 ± 0.13 | 1.07 ± 0.046 | 0.985 ± 0.037 | 0.575 ± 0.051 | 0.639 ± 0.062 | 0.522 ± 0.026 | 0.513 ± 0.037
RDES SOFT TISSUE | 1.08 ± 0.022 | 1.16 ± 0.21 | 1.1 ± 0.11 | 1.11 ± 0.071 | 0.854 ± 0.21 | 1.15 ± 0.3 | 0.232 ± 0.03 | 0.0647 ± 0.0021 | 1.2 ± 0.1 | 1.26 ± 0.021 | 0.831 ± 0.19 | 0.295 ± 0.015 | 0.055 ± 0.0036 | 0.0457 ± 0.0015 | 0.0463 ± 0.0046 | 0.0447 ± 0.0015
T47D BREAST | 1.06 ± 0.042 | 1.04 ± 0.03 | 1.07 ± 0.09 | 1.02 ± 0.021 | 1.03 ± 0.047 | 0.96 ± 0.068 | 0.525 ± 0.036 | 0.46 ± 0.023 | 1.12 ± 0.013 | 1.12 ± 0.073 | 1.07 ± 0.025 | 0.9393 ± 0.0076 | 0.562 ± 0.033 | 0.406 ± 0.065 | 0.33 ± 0.025 | 0.339 ± 0.024
HU09 BONE | 0.957 ± 0.075 | 0.977 ± 0.09 | 1.12 ± 0.099 | 1 ± 0.023 | 0.972 ± 0.12 | 0.803 ± 0.087 | 0.146 ± 0.0087 | 0.0523 ± 0.0064 | 1.07 ± 0.17 | 1 ± 0.055 | 1.15 ± 0.085 | 1.06 ± 0.059 | 0.589 ± 0.031 | 0.459 ± 0.051 | 0.335 ± 0.018 | 0.337 ± 0.043
NCIH441 LUNG | 1.03 ± 0.15 | 1.05 ± 0.037 | 1 ± 0.04 | 0.974 ± 0.011 | 1.01 ± 0.053 | 0.829 ± 0.05 | 0.565 ± 0.035 | 0.524 ± 0.016 | 1.15 ± 0.12 | 1.14 ± 0.099 | 1.12 ± 0.023 | 1.11 ± 0.062 | 1.04 ± 0.12 | 0.882 ± 0.067 | 0.882 ± 0.11 | 0.855 ± 0.1
ZR751 BREAST | 1.1 ± 0.04 | 1.1 ± 0.048 | 1.02 ± 0.067 | 1.05 ± 0.076 | 0.996 ± 0.022 | 0.968 ± 0.089 | 0.901 ± 0.078 | 0.7397 ± 0.007 | 1 ± 0.11 | 1.1 ± 0.14 | 0.975 ± 0.057 | 1.29 ± 0.21 | 0.715 ± 0.077 | 0.69 ± 0.088 | 0.707 ± 0.044 | 0.741 ± 0.011
S68 BREAST | 0.939 ± 0.27 | 1.1 ± 0.18 | 1.01 ± 0.072 | 1.44 ± 0.12 | 1.07 ± 0.22 | 0.776 ± 0.095 | 0.369 ± 0.016 | 0.297 ± 0.024 | 0.882 ± 0.3 | 0.879 ± 0.25 | 1.1 ± 0.15 | 1.21 ± 0.29 | 1.07 ± 0.13 | 1.21 ± 0.16 | 1.04 ± 0.18 | 1.17 ± 0.12
CAL51 BREAST | 0.951 ± 0.068 | 1.02 ± 0.022 | 0.956 ± 0.039 | 0.977 ± 0.049 | 0.929 ± 0.063 | 0.921 ± 0.019 | 0.305 ± 0.037 | 0.139 ± 0.011 | 1.06 ± 0.039 | 1.02 ± 0.021 | 1.02 ± 0.035 | 0.962 ± 0.052 | 0.243 ± 0.0049 | 0.142 ± 0.015 | 0.0995 ± 0.0051 | 0.09133 ± 0.00076

From the supplement of paper PMC6045584
